Test results: ChEMBL document CHEMBL1201862, “PubChem BioAssay data set” (2004)
Active and inactive are the calls of the source.

Tests used:
[1] = NIH-3T3 fibroblast cytotoxicity, dose response, cytotoxicity control, cell-based, fluorescence, Alamar Blue, secondary assay (AID 2327); format: functional;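 note: NIH-3T3 mouse fibroblasts cultured with fluconazole at 8 µg/mL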
[2] = target: T1, Delta-type opioid receptor (Homo sapiens, UniProt P41143); assay: HTS Image-Based Screen for Antagonists of the DOR Receptor. [Related pubchem assays (depositor defined):AID1777, AID1785, AID1786, AID2133]; format: functional
[3] = target: Mu-type opioid receptor (Homo sapiens, UniProt P35372); assay: HTS Image-Based Screen for Agonists of the MOR Receptor. [Related pubchem assays (depositor defined):AID1777, AID1785, AID1786, AID2133]; format: functional;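 note: imaging of beta-arrestin GFP recruitment into spots after receptor activation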
[4] = test system: Streptococcus sp. 'group A'; assay: Streptococcus pyogenes SK(-)GAS viability under kanamycin – luminescence, BacTiterGlo, confirmation, counter-screen for streptokinase expression inhibitor project, dose response (AID 1900); format: functional, organism-based
[5] = target: T1, Delta-type opioid receptor; assay: HTS Image-Based Screen for Agonists of the DOR Receptor. [Related pubchem assays (depositor defined):AID1777, AID1786, AID2133]; format: functional
[6] = fluconazole-exposed Candida albicans growth modulators – fluorescence, retest, confirmation (AID 2467); format: functional, cell-based
[7] = target: G-protein coupled receptor 55 (Homo sapiens, UniProt Q9Y2T6); assay: inhibition of LPI-stimulated GPR55 beta-arrestin translocation – imaging, U2OS, beta-arrestin-GFP, LPI agonist, primary screen (AID 2013); format: functional;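 note: antagonist potency measured as reduced agonist-driven arrestin aggregation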
[8] = Trypanosoma cruzi growth suppression in host cells – NIH3T3 host cells, beta-gal luminescence, confirmation (AID 2044); format: functional, cell-based;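 note: intracellular parasites grown in NIH/3T3 mouse fibroblasts as host cells; luminescent beta-galactosidase reporter signal from transgenic T. cruzi replicating inside host cells; inhibitors lower the luminescence signal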
[9] = target: T2, Kappa-type opioid receptor (Homo sapiens, UniProt P41145); format: functional
[10] = NIH3T3 cell viability loss – ATP luminescence, mouse fibroblasts, counter-screen, dose response (AID 2010); format: functional, cell-based;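 note: cells exposed to compound for about 90 hours before reading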
[11] = target: T3, Beta-galactosidase (Escherichia coli, UniProt Q8VNN2); format: functional
[12] = target: T2, Kappa-type opioid receptor; format: functional; remark: listed apart in the source
[13] = test system: Streptococcus; assay: GAS UMAA2166 growth inhibition – luminescence, BacTiterGlo, counter-screen for streptokinase expression inhibitor project, dose response (AID 1915); format: functional, organism-based;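 note: potency for reduction of bacterial viability or growth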
[14] = target: T3, Beta-galactosidase; assay: detection-enzyme interference by beta-gal modulators – biochemical, E. coli enzyme, set 3, artefact control for CCR6 antagonist project, dose response (AID 504712); format: functional
[15] = test system: Vero; assay: cells; format: functional; details: Chlorocebus sabaeus
[16] = target: Photoreceptor-specific nuclear receptor (Homo sapiens, UniProt Q9Y5X4); format: functional, cell-based;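 note: CHO-S cells with Gal4-NCOR and VP16-NR2E3 two-hybrid luciferase reporter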
[17] = target: T4, Heat shock factor protein 1 (Mus musculus, UniProt P38532); assay: decrease of HSF1-responsive luciferase luminescence – cell-based, NIH3T3, dose retest, confirmation (AID 2382); format: functional;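 note: NIH3T3 fibroblasts with HSF1-driven luciferase reporter stressed by proteasome inhibitor MG132; luminescence from HSF1-driven luciferase expression after 8 hours of MG132 stress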
T4 sequence (P38532 whole entry): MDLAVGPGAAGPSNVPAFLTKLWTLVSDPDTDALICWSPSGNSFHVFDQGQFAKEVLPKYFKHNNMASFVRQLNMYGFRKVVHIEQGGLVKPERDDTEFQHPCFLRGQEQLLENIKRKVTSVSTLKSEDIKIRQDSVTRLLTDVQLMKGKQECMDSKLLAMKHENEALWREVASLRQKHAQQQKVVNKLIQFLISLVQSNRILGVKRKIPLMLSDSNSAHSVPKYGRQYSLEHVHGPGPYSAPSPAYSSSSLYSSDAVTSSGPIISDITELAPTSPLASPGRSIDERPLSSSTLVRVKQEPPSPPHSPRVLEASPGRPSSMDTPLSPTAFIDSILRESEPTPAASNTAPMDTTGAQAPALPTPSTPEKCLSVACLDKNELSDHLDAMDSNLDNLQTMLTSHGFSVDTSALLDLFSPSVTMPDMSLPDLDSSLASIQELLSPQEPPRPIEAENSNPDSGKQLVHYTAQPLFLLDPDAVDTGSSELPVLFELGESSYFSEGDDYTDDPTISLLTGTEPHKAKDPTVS

[18] = target: Intestinal-type alkaline phosphatase (Mus musculus, UniProt P24822); assay: PubChem AID 488874; format: functional
[19] = target: T5, Intestinal-type alkaline phosphatase (Homo sapiens, UniProt P09923); assay: human intestinal alkaline phosphatase activators, dose response, biochemical, luminescence, uHTS hits (AID 463120); format: functional
[20] = target: T5, Intestinal-type alkaline phosphatase; assay: activation of human intestinal alkaline phosphatase – biochemical, luminescent, uHTS hits, set 2, dose response (AID 488817); format: functional;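 note: potency of activators that raise enzyme activity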
[21] = target: T6, Alkaline phosphatase, tissue-nonspecific isozyme (Homo sapiens, UniProt P05186); assay: activation of tissue-nonspecific alkaline phosphatase – biochemical, TNAP isozyme, human IAP uHTS hits, selectivity assay for human IAP activator project, dose response (AID 488886); format: functional;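 note: potency of compounds raising TNAP activity as a selectivity check on IAP activators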
T6 sequence (P05186 whole entry): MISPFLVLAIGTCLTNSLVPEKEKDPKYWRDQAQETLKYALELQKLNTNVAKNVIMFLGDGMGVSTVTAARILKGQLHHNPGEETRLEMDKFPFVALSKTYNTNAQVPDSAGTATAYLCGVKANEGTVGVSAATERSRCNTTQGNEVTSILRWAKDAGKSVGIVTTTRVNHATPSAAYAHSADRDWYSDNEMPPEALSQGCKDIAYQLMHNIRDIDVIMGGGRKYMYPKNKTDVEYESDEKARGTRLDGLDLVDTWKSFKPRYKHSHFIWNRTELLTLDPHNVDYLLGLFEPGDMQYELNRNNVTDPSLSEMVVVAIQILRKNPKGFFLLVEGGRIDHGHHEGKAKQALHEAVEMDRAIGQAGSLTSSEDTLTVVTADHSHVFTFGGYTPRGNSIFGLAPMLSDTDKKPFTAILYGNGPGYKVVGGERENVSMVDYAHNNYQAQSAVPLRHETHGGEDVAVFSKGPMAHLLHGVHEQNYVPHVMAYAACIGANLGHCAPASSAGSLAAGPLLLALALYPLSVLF

[22] = test system: HEK293; assay: inhibition of NOD1-driven NF-kB reporter – cell-based, luminescence, uHTS, primary screen (AID 1578); format: functional; details: Homo sapiens
[23] = decrease of insulin promoter-GFP reporter – imaging, high-content screening, mouse beta cells (AID 1628); format: functional; details: MIN6
[24] = test system: HEK293; assay: cells; format: functional, cell-based; details: Homo sapiens
[25] = MIN6 cell viability loss – mouse insulinoma, cytotoxicity control, dose response (AID 2122); format: functional;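 note: confirmatory high-throughput counterscreen run to flag cytotoxic compounds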
[26] = test system: HEK293; assay: cells; format: functional, cell-based; details: Homo sapiens; remark: listed apart in the source
[27] = test system: HEK293; assay: NOD2 signaling inhibitors in MDP-stimulated cells, cell-based, uHTS, luminescence (AID 2001); format: functional; details: Homo sapiens
[28] = target: T7, Serine/threonine-protein phosphatase (Candida dubliniensis (strain CD36 / CBS 7987 / NCPF 3949 / NRRLY-17841) (Yeast), UniProt B9W6M3); assay: blockers of CaCl2-induced CDRE-lacZ signaling – S. cerevisiae, luminescence, secondary, dose response (AID 2388); format: functional, cell-based;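 note: yeast reporter cells carrying a calcineurin-responsive lacZ construct stimulated with calcium chloride; luminescent beta-galactosidase reporter signal in whole cells rather than isolated phosphatase activity; potency for inhibition where a drop in reporter signal means calcineurin blockade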
T7 sequence (B9W6M3 whole entry): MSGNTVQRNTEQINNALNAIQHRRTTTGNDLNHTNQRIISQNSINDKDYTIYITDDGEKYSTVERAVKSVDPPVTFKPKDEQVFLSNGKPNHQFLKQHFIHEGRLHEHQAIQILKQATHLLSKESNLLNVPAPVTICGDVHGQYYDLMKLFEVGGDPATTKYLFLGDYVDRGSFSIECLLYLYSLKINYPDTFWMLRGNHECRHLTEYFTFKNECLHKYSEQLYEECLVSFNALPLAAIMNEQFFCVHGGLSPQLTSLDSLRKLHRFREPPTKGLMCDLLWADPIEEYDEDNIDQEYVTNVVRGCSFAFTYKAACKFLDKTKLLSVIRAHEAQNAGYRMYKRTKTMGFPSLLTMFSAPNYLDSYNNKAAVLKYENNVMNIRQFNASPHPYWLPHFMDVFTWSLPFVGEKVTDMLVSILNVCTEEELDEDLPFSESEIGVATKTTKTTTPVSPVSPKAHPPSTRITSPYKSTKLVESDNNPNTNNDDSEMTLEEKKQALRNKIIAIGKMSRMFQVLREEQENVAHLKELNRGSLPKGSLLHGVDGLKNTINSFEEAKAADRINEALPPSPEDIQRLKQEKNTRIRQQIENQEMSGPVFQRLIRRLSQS

[29] = target: Signal transducer and activator of transcription 3 (Homo sapiens, UniProt P40763); assay: STAT3 blockade with qPCR and toxicity readouts – cell-based, STAT1 panel, cytotoxicity, late-stage follow-up, panel member STAT3 Inhibition (AID 2078)
[30] = target: Signal transducer and activator of transcription 1-alpha/beta (Homo sapiens, UniProt P42224); assay: STAT3 blockade with qPCR and toxicity readouts – cell-based, STAT1 panel, cytotoxicity, late-stage follow-up, panel member STAT1 Inhibition (AID 2078)
[31] = target: ATP-dependent molecular chaperone HSP82 (Candida albicans (strain WO-1) (Yeast), UniProt C4YTQ8); assay: steroid-induced GRE reporter decrease in yeast – S. cerevisiae, luminescence, Hsp90 inhibitor project, dose response (AID 2400); format: functional, cell-based;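 note: beta-galactosidase luminescence from glucocorticoid response element reporter as proxy for Hsp90 function; inhibitor potency where signal loss means Hsp90 inhibition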
[32] = reduction of Shn3 3'UTR-driven luciferase in osteoblasts – cell-based, Clone20 osteoblasts, firefly luciferase, cherry-picked, dose response (AID 624132); format: functional;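 note: firefly luciferase luminescence from reporter carrying the Shn3 3'UTR in osteoblasts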
[33] = loss of viability in HepG2 cells – cell-based, CellTiter-Glo, cherry-picked, cytotoxicity control for Shn3 inhibitor project, dose response (AID 624134); format: functional
[34] = non-specific 3'UTR reporter inhibition in Clone20-Shn3RL – cell-based, Renilla luciferase, cherry-picked, counter-screen for Shn3 inhibitor project, dose response (AID 624133); format: functional
[35] = target: Tumor necrosis factor (Homo sapiens, UniProt P01375); assay: analog potency on TNFa NF-kB signaling – cell-based, revised, SAR follow-up (AID 2337); format: functional
[36] = test system: HEK293; assay: cells; details: Homo sapiens

T2 sequence (P41145 whole entry): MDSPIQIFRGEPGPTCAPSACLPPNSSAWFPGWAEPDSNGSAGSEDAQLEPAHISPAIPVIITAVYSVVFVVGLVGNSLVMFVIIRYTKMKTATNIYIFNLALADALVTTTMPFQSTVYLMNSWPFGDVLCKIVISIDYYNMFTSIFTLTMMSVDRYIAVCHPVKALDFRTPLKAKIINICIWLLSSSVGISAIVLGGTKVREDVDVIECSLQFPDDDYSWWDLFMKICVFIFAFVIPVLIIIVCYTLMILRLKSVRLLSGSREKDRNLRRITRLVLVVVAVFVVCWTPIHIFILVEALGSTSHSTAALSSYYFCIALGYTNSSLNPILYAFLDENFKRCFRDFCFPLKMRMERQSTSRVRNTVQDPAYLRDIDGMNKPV
T1 sequence (P41143 whole entry): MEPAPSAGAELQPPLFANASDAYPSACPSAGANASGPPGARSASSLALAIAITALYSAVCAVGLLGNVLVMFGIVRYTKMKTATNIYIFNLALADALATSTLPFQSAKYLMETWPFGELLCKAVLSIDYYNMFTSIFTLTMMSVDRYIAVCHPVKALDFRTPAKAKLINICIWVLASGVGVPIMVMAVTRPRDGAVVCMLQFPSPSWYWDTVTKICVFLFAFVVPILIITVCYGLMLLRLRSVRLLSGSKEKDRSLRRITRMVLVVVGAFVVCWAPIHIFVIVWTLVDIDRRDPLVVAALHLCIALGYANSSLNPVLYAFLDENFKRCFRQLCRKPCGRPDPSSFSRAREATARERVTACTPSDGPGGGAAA
T5 sequence (P09923 whole entry): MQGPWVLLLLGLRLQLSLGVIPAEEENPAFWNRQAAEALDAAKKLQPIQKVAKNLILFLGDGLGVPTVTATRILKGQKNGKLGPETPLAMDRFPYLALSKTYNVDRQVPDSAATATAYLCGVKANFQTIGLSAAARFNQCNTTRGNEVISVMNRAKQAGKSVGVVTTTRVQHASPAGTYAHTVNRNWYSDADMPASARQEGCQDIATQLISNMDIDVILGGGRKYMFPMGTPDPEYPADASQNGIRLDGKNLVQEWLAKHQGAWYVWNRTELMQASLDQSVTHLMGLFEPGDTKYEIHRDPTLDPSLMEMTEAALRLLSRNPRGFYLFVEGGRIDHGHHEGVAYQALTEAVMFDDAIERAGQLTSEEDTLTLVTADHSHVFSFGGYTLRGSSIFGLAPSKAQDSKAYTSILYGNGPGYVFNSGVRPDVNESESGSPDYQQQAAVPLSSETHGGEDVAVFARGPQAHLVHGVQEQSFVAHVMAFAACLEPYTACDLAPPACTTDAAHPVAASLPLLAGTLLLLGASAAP
T3 sequence (Q8VNN2 whole entry): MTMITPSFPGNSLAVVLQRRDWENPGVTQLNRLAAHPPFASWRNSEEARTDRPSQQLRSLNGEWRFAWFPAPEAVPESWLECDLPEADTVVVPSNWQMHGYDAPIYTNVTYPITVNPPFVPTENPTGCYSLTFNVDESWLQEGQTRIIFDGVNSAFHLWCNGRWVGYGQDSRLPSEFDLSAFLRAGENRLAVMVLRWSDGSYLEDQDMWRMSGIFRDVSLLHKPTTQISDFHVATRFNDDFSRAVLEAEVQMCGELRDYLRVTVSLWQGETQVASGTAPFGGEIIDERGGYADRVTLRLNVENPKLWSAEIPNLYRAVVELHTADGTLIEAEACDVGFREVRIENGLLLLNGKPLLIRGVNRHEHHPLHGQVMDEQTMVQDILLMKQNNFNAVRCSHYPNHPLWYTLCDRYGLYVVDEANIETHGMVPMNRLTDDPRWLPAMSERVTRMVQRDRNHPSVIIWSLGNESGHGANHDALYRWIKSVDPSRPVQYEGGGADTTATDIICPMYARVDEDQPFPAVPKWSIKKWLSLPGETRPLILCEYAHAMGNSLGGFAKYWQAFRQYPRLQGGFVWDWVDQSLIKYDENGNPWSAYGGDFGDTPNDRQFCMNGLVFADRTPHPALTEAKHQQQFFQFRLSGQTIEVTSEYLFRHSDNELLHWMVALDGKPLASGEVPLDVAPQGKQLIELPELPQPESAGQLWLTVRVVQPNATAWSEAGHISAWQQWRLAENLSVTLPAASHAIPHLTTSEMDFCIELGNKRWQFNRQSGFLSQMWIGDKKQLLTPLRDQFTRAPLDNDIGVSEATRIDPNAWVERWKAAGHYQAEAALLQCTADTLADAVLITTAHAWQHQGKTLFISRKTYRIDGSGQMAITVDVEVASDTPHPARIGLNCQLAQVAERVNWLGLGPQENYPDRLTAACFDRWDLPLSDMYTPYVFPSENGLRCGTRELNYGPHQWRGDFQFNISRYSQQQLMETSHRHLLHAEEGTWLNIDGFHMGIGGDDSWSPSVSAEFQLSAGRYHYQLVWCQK
Sequence of Intestinal-type alkaline phosphatase (Mus musculus, UniProt P24822) (P24822 whole entry): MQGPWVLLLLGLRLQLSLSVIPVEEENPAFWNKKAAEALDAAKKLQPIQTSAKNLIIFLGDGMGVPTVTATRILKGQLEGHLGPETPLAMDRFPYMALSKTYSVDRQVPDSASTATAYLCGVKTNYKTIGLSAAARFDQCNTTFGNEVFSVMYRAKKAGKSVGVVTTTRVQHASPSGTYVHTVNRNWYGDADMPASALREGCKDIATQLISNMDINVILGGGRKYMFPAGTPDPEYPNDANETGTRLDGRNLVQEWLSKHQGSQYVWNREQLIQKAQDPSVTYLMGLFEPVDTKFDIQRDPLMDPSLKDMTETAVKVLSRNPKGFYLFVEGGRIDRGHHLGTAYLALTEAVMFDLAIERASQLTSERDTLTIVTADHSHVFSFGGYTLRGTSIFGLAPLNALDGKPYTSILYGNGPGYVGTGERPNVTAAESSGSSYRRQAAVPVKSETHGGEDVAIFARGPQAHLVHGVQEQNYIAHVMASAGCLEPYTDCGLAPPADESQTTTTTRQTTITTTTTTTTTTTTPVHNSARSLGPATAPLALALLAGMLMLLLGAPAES
Sequence of Mu-type opioid receptor (P35372 whole entry): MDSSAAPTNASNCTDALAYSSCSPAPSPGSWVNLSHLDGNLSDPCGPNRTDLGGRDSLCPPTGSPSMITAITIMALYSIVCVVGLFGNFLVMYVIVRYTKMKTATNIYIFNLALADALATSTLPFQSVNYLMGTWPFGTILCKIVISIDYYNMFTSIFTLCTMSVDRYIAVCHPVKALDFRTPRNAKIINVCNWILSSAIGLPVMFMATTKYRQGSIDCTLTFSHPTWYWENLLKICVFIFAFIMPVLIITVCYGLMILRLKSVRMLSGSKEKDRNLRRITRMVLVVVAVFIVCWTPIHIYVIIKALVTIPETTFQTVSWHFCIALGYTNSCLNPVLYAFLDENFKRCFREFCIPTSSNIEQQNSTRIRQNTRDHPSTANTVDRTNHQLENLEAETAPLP
Sequence of G-protein coupled receptor 55 (Q9Y2T6 whole entry): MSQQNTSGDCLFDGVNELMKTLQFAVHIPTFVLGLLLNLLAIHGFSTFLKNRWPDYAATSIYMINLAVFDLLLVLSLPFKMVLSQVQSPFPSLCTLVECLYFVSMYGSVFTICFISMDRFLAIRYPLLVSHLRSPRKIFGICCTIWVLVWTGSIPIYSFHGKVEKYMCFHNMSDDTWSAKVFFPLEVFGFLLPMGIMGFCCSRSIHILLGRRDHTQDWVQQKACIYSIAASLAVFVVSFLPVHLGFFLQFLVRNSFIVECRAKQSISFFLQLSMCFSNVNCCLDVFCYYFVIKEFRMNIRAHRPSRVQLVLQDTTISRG
Sequence of Photoreceptor-specific nuclear receptor (Q9Y5X4 whole entry, the tested form may be a part): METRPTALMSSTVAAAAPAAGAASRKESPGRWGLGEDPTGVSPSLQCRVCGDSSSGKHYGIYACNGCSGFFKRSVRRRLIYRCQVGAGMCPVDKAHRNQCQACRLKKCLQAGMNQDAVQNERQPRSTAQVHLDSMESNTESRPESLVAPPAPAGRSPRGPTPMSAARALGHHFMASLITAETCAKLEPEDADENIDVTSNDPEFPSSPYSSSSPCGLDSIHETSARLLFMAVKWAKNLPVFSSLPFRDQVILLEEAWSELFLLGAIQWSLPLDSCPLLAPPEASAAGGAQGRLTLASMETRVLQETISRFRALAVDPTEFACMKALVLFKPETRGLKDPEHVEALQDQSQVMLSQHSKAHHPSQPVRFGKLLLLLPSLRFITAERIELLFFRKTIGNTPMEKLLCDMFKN
Sequence of Tumor necrosis factor (P01375 whole entry): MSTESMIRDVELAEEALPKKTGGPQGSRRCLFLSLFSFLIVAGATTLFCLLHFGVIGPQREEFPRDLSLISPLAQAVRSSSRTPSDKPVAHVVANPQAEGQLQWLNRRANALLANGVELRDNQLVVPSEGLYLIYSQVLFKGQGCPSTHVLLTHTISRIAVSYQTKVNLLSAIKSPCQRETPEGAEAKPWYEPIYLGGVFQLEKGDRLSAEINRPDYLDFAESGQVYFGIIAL
Sequence of Signal transducer and activator of transcription 3 (P40763 whole entry): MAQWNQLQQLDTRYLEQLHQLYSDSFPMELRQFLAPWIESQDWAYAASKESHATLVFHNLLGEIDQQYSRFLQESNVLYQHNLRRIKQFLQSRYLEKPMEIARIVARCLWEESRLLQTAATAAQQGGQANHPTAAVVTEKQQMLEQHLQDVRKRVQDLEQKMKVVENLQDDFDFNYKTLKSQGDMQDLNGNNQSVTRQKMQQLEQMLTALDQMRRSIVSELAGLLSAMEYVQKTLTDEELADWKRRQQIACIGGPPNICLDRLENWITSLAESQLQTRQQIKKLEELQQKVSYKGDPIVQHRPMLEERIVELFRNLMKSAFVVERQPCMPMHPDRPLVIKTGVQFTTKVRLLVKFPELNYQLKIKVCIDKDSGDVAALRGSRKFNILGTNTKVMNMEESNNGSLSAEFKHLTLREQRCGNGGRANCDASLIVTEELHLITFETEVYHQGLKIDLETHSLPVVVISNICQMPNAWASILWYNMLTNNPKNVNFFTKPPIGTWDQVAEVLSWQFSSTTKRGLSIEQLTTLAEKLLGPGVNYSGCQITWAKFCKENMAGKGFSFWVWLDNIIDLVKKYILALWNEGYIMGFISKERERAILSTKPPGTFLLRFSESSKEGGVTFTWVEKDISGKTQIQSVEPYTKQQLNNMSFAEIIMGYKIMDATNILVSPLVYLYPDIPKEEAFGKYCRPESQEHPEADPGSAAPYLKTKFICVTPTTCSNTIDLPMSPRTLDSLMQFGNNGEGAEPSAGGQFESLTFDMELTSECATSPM

Row | Structure (SMILES) | EC50 [1] | IC50 [2] | EC50 [3] | EC50 [5] | EC50 [6] | IC50 [9] | EC50 [11] | IC50 [12] [µM] | IC50 [18] | EC50 [19] | EC50 [20] | EC50 [21] | other results
1 | Cc1cccc(Cc2cnc(N3C(=N)SC(C)C3=O)s2)c1 (stereo not drawn) | > 160 µM (inconclusive) | > 32 µM (inactive) | > 32 µM (inactive) | > 32 µM (inactive) | 1.91 µM (active) | 5.68 µM (active) | > 31.5 µM (inactive) | > 32 | – | – | – | – | EC50 [4]: 0.179 µM (active); IC50 [7]: 0.847 µM (active); EC50 [8]: 2.41 µM (active); EC50 [10]: > 60 µM (not active); EC50 [13]: 7.82 µM (active); IC50 [14]: > 66.6 µM (inactive); CC50 [15]: > 25 µM (active); IC50 [16]: 1.87 µM (active)
2 | CCn1c(C)nc2cc(C(=O)NNC(=S)Nc3ccccc3)ccc21 | – | – | – | – | – | – | – | – | 50.3 µM (active) | 10.6 µM (active) | 15.6 µM (active) | 15.4 µM (active) | EC50 [17]: 0.192 µM (active)
3 | CCN(CC)C(CNC(=O)c1cc(=O)[nH]c2ccccc12)c1ccccc1Cl (stereo not drawn) | – | > 32 µM (inactive) | > 32 µM (inactive) | > 32 µM (inactive) | – | 14.9 µM (active) | > 31.5 µM (inactive) | 14.6 | – | – | – | – | –
4 | c1ccc(CC2CCN(c3ncnc4sccc34)CC2)cc1 | > 160 µM (inconclusive) | – | – | – | 0.574 µM (active) | – | – | – | – | – | – | – | EC50 [22]: > 20 µM (inactive); IC50 [23]: 0.756 µM (active); IC50 [24]: > 20 µM (inactive); IC50 [25]: 0.505 µM (active); IC50 [26]: > 20 µM (inactive); IC50 [27]: > 20 µM (inactive); EC50 [28]: > 180 µM (inactive); IC50 [29]: 1.85 µM (active); IC50 [30]: > 55.7 µM (inactive); EC50 [31]: 19.5 µM (active); AC50 [32]: 0.362 µM (active); AC50 [33]: 1.84 µM (active); AC50 [34]: 5.88 µM (active)
5 | C[C@@H](NC(=O)c1[nH]cnc1C(=O)Nc1ccon1)c1ccccc1 | – | – | – | – | – | – | – | – | 39.3 µM (active) | 12 µM (active) | 16.4 µM (active) | 25.9 µM (active) | –
6 | O=C(Nc1ccc(F)cc1)c1ccc(CN2CCc3ccccc32)cc1 | – | – | – | – | – | – | – | – | – | – | – | – | IC50 [35]: > 20 µM (inactive); IC50 [36]: > 20 µM (inactive)
